According to ChEMBL document CHEMBL3832081, “DailyMed|setid=caaf1b7f-eaab-4fb6-a955-b7d881038fef | METRONIDAZOLE - metronidazole gel|Sandoz Inc”:

Assay: Evaluation of pharmacokinetic parameters for metronidazole following topical administration of metronidazole gel USP, 1% to the face of 13 patients with moderate to severe rosacea.
Type: ADME, organism-based
Set-up: dose 1 g, route topical
Conditions: human, in vivo, topical or ocular, dosed compound id 31, dosed compound name METRONIDAZOLE, gender male and female, regimen Once daily, study dosing duration 7 days, tissue Plasma

- Cmax (1 g): 32 ng/mL
- AUC (1 g, read-out: AUC(0-24)): 595 ng·h/mL
- Tmax (dose 1 g, route topical): 6 to 10 h
Compound: Cc1ncc([N+](=O)[O-])n1CCO [METRONIDAZOLE]
